For the test, the target named is TRPML1 (Homo sapiens, UniProt Q9GZU1). As to the kind of experiment: Fluorescent TRPML1 assay (Fluo4-AM calcium fluorescence in doxycycline-induced HEK-293 Trex cells). It is filed as cell-based. To be noted: fluorescent calcium assay. How it is done: HEK-293 Trex cells were stably transfected with a construct consisting of the human coding sequence for TRPML1 cloned into the […] plasmid pCDNA5 T/O. Mutations were introduced into the TRPML1 sequence to facilitate expression on the cell surface (Silvia Vergarajauregui, Rosa Puertollano, Traffic. 2006 March; 7(3): 337-353). Briefly, the cells are cultured in 150 mm round tissue culture dishes containing 20 mL of media. The day before the assay the cells are rinsed with DPBS-Ca—Mg and then treated briefly with Trypsin-EDTA. The Trypsin-EDTA is diluted with growth media, and cells are counted. 38×10^6 cells are re-plated into 150 mm round tissue culture dishes in media containing 0.5 ug/mL doxycycline to induce expression of hTRPML1.
TRPML1, sequence (Q9GZU1 whole entry L15A/L16A/L577A/L578A, form open): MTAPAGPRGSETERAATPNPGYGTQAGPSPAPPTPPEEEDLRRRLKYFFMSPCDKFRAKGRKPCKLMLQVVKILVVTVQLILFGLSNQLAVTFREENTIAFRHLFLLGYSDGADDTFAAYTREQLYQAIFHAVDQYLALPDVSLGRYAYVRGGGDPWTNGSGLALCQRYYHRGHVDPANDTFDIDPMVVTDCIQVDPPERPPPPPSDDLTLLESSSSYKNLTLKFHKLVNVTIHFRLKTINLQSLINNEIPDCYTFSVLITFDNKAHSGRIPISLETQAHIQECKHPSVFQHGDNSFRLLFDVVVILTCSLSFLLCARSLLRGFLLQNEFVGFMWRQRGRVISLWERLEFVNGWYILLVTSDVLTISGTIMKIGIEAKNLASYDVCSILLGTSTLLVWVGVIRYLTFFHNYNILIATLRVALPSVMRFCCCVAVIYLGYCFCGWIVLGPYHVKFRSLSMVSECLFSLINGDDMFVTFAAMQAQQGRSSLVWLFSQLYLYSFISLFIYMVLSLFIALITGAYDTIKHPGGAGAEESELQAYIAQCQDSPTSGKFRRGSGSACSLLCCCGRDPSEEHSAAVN
The day of the experiment cells are lifted from the plates as above and collected by centrifugation. The cells are then suspended in dye loading buffer consisting of Ringer's solution supplemented with 0.1% Pluronic Acid and 1 micromolar Fluo4-AM dye. Cells are loaded for ˜60 minutes in the dark with occasional mixing. The cells are collected by centrifugation, the loading media aspirated, and the cells resuspended in 25 mL Ringer's solution and incubated ˜60 minutes in the dark. The cells are again collected by centrifugation, rinsed in Ringer's Solution and resuspended to […] in modified Ringer's solution containing 10 mM calcium.
Compounds are dissolved to a concentration of 10 millimolar with DMSO. Compound plates are created by dispensing compounds into 384 well black wall clear bottom plates (Greiner 781091). Positive and negative controls are included on each plate. Typically, different amounts of each compound are tested ranging from 100 nanoMoles (20 micromolar final concentration) decreasing in half-log steps to 31 picoMoles (6 nanomolar final concentration). Each concentration is typically tested in triplicate.
50 microliters of dye-loaded cells are dispensed into each well of the compound assay plate created above. The fluorescence in each well is then determined with an excitation wavelength of 480 nm and an emission wavelength of 540 nm using either a Molecular Devices SpectraMax multimode plate reader or a Hamamatsu FDSS/uCell plate imager.
The resulting fluorescence for each well is exported as an ascii file and loaded into our LIMS for analysis. The percent activity of each compound at each concentration is determined by comparison to the positive and negative control wells included in each plate.
EC50 values were calculated using a non-linear regression of Prism. In the table, “A” indicates an EC50 of less than 100 nM, “B” indicates an EC50 range from 100 nM to 500 nM; “C” indicates an EC50 range from 500 nM to 2 μM; and “D” indicates an EC50 greater than 2 μM.

Where only a bound is given, the exact number is not on record here.

Consider `C[C@H]1CN(C(=O)OC(C)(C)C)CCN1c1ncnc2c1c(N1CCCC1)cn2-c1cc(F)c(F)c(F)c1` [Compound 356, tert-butyl (S)-3-methyl-4-(5-(pyrrolidin-1-yl)-7-(3,4,5-trifluorophenyl)-7H-pyrrolo[2,3-d]pyrimidin-4-yl)piperazine-1-carboxylate], for which the EC50 is less than 100 nM.

Turning to `C[C@H]1CN(C(=O)OC(C)(C)C)CCN1c1ncnc2c1c(-c1cnccn1)cn2-c1cccc(C#N)c1` [Compound 297, tert-butyl (S)-4-(7-(3-cyanophenyl)-5-(pyrazin-2-yl)-7H-pyrrolo[2,3-d]pyrimidin-4-yl)-3-methylpiperazine-1-carboxylate], the EC50 was 500 to 2000 nM.

Take `COc1cc(OC)cc(-n2cc(C3CC3)c3c(N4CCN(C(=O)OC(C)(C)C)C[C@@H]4C)ncnc32)c1` [Compound 289, tert-butyl (S)-4-(5-cyclopropyl-7-(3,5-dimethoxyphenyl)-7H-pyrrolo[2,3-d]pyrimidin-4-yl)-3-methylpiperazine-1-carboxylate]: the half-maximal effective concentration (EC50) was in the range of 100 to 500 nM.

For `C[C@H]1CN(C(=O)OC(C)(C)C)CCN1c1ncnc2c1c(C1CCOCC1)nn2-c1cccc(Cl)c1` [Compound 284, tert-butyl (S)-4-(1-(3-chlorophenyl)-3-(tetrahydro-2H-pyran-4-yl)-1H-pyrazolo[3,4-d]pyrimidin-4-yl)-3-methylpiperazine-1-carboxylate], the EC50 lay within 500 to 2000 nM.

With `COc1cccc(-n2cc(-c3nccnc3C)c3c(N4CCN(C(=O)OC(C)(C)C)C[C@@H]4C)ncnc32)c1` [Compound 293, tert-butyl (S)-4-(7-(3-methoxyphenyl)-5-(3-methylpyrazin-2-yl)-7H-pyrrolo[2,3-d]pyrimidin-4-yl)-3-methylpiperazine-1-carboxylate], the EC50 fell in the range of 500 to 2000 nM.

Consider `COc1cccc(-n2cc(-c3cnccn3)c3c(N4CCN(C(=O)OC(C)(C)C)C[C@@H]4C)ncnc32)c1` [Compound 295, tert-butyl (S)-4-(7-(3-methoxyphenyl)-5-(pyrazin-2-yl)-7H-pyrrolo[2,3-d]pyrimidin-4-yl)-3-methylpiperazine-1-carboxylate], for which the EC50 is 500 to 2000 nM.

Consider `C[C@H]1CN(C(=O)OC(C)(C)C)CCN1c1ncnc2c1c(C1CC1)nn2-c1cccc(C#N)c1` [Compound 357, tert-butyl (S)-4-(1-(3-cyanophenyl)-3-cyclopropyl-1H-pyrazolo[3,4-d]pyrimidin-4-yl)-3-methylpiperazine-1-carboxylate], for which the EC50 is less than 100 nM.

On to `C[C@H]1CN(C(=O)OC(C)(C)C)CCN1c1ncnc2c1c(-c1cnccn1)cn2-c1cccc(OC(F)(F)F)c1` [Compound 296, tert-butyl (S)-3-methyl-4-(5-(pyrazin-2-yl)-7-(3-(trifluoromethoxy)phenyl)-7H-pyrrolo[2,3-d]pyrimidin-4-yl)piperazine-1-carboxylate], for which the EC50 is 100 to 500 nM.

On to `C[C@H]1CN(C(=O)OC(C)(C)C)CCN1c1ncnc2c1c(-c1ccccn1)cn2-c1cccc(OC(F)(F)F)c1` [Compound 279, tert-butyl (S)-3-methyl-4-(5-(pyridin-2-yl)-7-(3-(trifluoromethoxy)phenyl)-7H-pyrrolo[2,3-d]pyrimidin-4-yl)piperazine-1-carboxylate], for which the EC50 lay in the range of 100 to 500 nM.

On to `C[C@H]1CN(C(=O)OC(C)(C)C)CCN1c1ncnc2c1c(-c1cccnc1)cn2-c1cccc(C#N)c1` [Compound 282, tert-butyl-(S)-4-(7-(3-cyanophenyl)-5-(pyridin-3-yl)-7H-pyrrolo[2,3-d]pyrimidin-4-yl)-3-methylpiperazine-1-carboxylate], for which the EC50 is 100 to 500 nM.

As to `COc1cccc(-n2cc(-c3ccccn3)c3c(N4CCN(C(=O)OC(C)(C)C)C[C@@H]4C)ncnc32)c1` [Compound 278, tert-butyl (S)-4-(7-(3-methoxyphenyl)-5-(pyridin-2-yl)-7H-pyrrolo[2,3-d]pyrimidin-4-yl)-3-methylpiperazine-1-carboxylate], the EC50 lay within 500 to 2000 nM.

On to `C[C@H]1CN(C(=O)OC(C)(C)C)CCN1c1ncnc2c1c(C1CC1)cn2-c1cc(F)cc(C#N)c1` [Compound 291, tert-butyl (S)-4-(7-(3-cyano-5-fluorophenyl)-5-cyclopropyl-7H-pyrrolo[2,3-d]pyrimidin-4-yl)-3-methylpiperazine-1-carboxylate], for which the EC50 was less than 100 nM.

As to `C[C@H]1CN(C(=O)OC(C)(C)C)CCN1c1ncnc2c1c(N1CCCC1)cn2-c1cccc(C#N)c1` [Compound 285, tert-butyl (S)-4-(7-(3-cyanophenyl)-5-(pyrrolidin-1-yl)-7H-pyrrolo[2,3-d]pyrimidin-4-yl)-3-methylpiperazine-1-carboxylate], the EC50 was less than 100 nM.

Consider `C[C@H]1CN(C(=O)OC(C)(C)C)CCN1c1ncnc2c1c(C1CC1)cn2-c1cc(C#N)cc(C#N)c1` [Compound 292, tert-butyl (S)-4-(5-cyclopropyl-7-(3,5-dicyanophenyl)-7H-pyrrolo[2,3-d]pyrimidin-4-yl)-3-methylpiperazine-1-carboxylate], for which the EC50 was in the range of 100 to 500 nM.

Consider `C[C@@H]1CCCN1c1cn(-c2cccc(Cl)c2)c2ncnc(N3CCN(C(=O)OC(C)(C)C)C[C@@H]3C)c12` [Compound 286, tert-butyl (S)-4-(7-(3-chlorophenyl)-5-((R)-2-methylpyrrolidin-1-yl)-7H-pyrrolo[2,3-d]pyrimidin-4-yl)-3-methylpiperazine-1-carboxylate], for which the EC50 was 100 to 500 nM.

Regarding `C[C@H]1CN(C(=O)OC(C)(C)C)CCN1c1ncnc2c1c(-c1ccccn1)cn2-c1cccc(C#N)c1` [Compound 280, tert-butyl (S)-4-(7-(3-cyanophenyl)-5-(pyridin-2-yl)-7H-pyrrolo[2,3-d]pyrimidin-4-yl)-3-methylpiperazine-1-carboxylate], the half-maximal effective concentration (EC50) is 100 to 500 nM.

Regarding `COc1cc(F)cc(-n2cc(C3CC3)c3c(N4CCN(C(=O)OC(C)(C)C)C[C@@H]4C)ncnc32)c1` [Compound 288, tert-butyl (S)-4-(5-cyclopropyl-7-(3-fluoro-5-methoxyphenyl)-7H-pyrrolo[2,3-d]pyrimidin-4-yl)-3-methylpiperazine-1-carboxylate], the EC50 is 100 to 500 nM.

For `CC(C)(C)OC(=O)N1CCN(c2ncnc3c2c(C2CC2)cn3-c2cc(F)cc(F)c2)C[C@@H]1C(F)(F)F` [Compound 276, tert-butyl (R)-4-(5-cyclopropyl-7-(3,5-difluorophenyl)-7H-pyrrolo[2,3-d]pyrimidin-4-yl)-2-(trifluoromethyl)piperazine-1-carboxylate], the concentration giving a half-maximal response (EC50) is less than 100 nM.

`Cc1nccnc1-c1cn(-c2cccc(C#N)c2)c2ncnc(N3CCN(C(=O)OC(C)(C)C)C[C@@H]3C)c12` [Compound 294, tert-butyl (S)-4-(7-(3-cyanophenyl)-5-(3-methylpyrazin-2-yl)-7H-pyrrolo[2,3-d]pyrimidin-4-yl)-3-methylpiperazine-1-carboxylate]: the EC50 fell in the range of 500 to 2000 nM.

On to `C[C@H]1CN(C(=O)OC(C)(C)C)CCN1c1ncnc2c1c(C1CC1)cn2[C@@H]1C[C@@H]2CC[C@H]1C2` [Compound 361, tert-butyl (S)-4-(7-((1S,2R,4R)-bicyclo[2.2.1]heptan-2-yl)-5-cyclopropyl-7H-pyrrolo[2,3-d]pyrimidin-4-yl)-3-methylpiperazine-1-carboxylate], for which the EC50 was less than 100 nM.

In the case of `C[C@H]1CN(C(=O)OC(C)(C)C)CCN1c1ncnc2c1c(-c1cccnc1)cn2-c1cccc(OC(F)(F)F)c1` [Compound 281, tert-butyl-(S)-3-methyl-4-(5-(pyridin-3-yl)-7-(3-(trifluoromethoxy)phenyl)-7H-pyrrolo [2,3-d]pyrimidin-4-yl)piperazine-1-carboxylate], the EC50 was less than 100 nM.

In the case of `C[C@H]1CN(C(=O)OC(C)(C)C(F)(F)F)CCN1c1ncnc2c1c(N1CCCC1)cn2C1CCCCC1` [Compound 359, 1,1,1-trifluoro-2-methylpropan-2-yl (S)-4-(7-cyclohexyl-5-(pyrrolidin-1-yl)-7H-pyrrolo[2,3-d]pyrimidin-4-yl)-3-methylpiperazine-1-carboxylate], the EC50 was in the range of 100 to 500 nM.

`C[C@H]1CN(C(=O)OC(C)(C)C)CCN1c1ncnc2c1c(N1CCC[C@H]1CO)cn2-c1cccc(Cl)c1` [Compound 298, tert-butyl (S)-4-(7-(3-chlorophenyl)-5-((S)-2-(hydroxymethyl)pyrrolidin-1-yl)-7H-pyrrolo[2,3-d]pyrimidin-4-yl)-3-methylpiperazine-1-carboxylate]: the EC50 was in the range of 500 to 2000 nM.

As usually defined, the EC50 is the concentration needed to bring the measured effect to its halfway point.
